# Reference: PubChem BioAssay (NCI)
#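 Briefly, cells in 96-well plates were exposed to five compound concentrations for 48 h, and endpoints were estimated by linear interpolation. TGI: total growth inhibition.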
# How the values were obtained:
# Assay in all cases: inhibition of tumour cell growth, NCI panel, 48 h
# 786-0 renal = test system: 786-0 renal
# A498 renal = test system: A498 renal
# A549 NSCLC = test system: A549 NSCLC
# ACHN renal = test system: ACHN renal
# CCRF-CEM leukemia = test system: CCRF-CEM leukemia
# COLO 205 colon = test system: COLO 205 colon
# DMS 114 small cell lung = test system: DMS 114 small cell lung
# DMS 273 small cell lung = test system: DMS 273 small cell lung
# EKVX NSCLC = test system: EKVX NSCLC
# HCT-116 colon = test system: HCT-116 colon
# HCT-15 colon = test system: HCT-15 colon
# HOP-18 NSCLC = test system: HOP-18 NSCLC
# HOP-92 NSCLC = test system: HOP-92 NSCLC
# HT29 colon = test system: HT29 colon
# IGROV1 ovarian = test system: IGROV1 ovarian
# K-562 leukemia = test system: K-562 leukemia
# KM12 colon = test system: KM12 colon
# KM20L2 colon = test system: KM20L2 colon
# LOX IMVI melanoma = test system: LOX IMVI melanoma
# LXFL 529 NSCLC = test system: LXFL 529 NSCLC
# M14 melanoma = test system: M14 melanoma
# M19-MEL melanoma = test system: M19-MEL melanoma
# MALME-3M melanoma = test system: MALME-3M melanoma
# MOLT-4 leukemia = test system: MOLT-4 leukemia
# NCI-H226 lung = test system: NCI-H226 lung
# NCI-H23 lung = test system: NCI-H23 lung
# NCI-H460 lung = test system: NCI-H460 lung
# NCI-H522 lung = test system: NCI-H522 lung
# OVCAR-3 ovarian = test system: OVCAR-3 ovarian
# OVCAR-4 ovarian = test system: OVCAR-4 ovarian
# OVCAR-5 ovarian = test system: OVCAR-5 ovarian
# OVCAR-8 ovarian = test system: OVCAR-8 ovarian
# RPMI-8226 leukemia = test system: RPMI-8226 leukemia
# RXF 393 renal = test system: RXF 393 renal
# RXF-631 renal = test system: RXF-631 renal
# SF-268 CNS = test system: SF-268 CNS
# SF-295 CNS = test system: SF-295 CNS
# SF-539 CNS = test system: SF-539 CNS
# SK-MEL-2 melanoma = test system: SK-MEL-2 melanoma
# SK-MEL-28 melanoma = test system: SK-MEL-28 melanoma
# SK-MEL-5 melanoma = test system: SK-MEL-5 melanoma
# SK-OV-3 ovarian = test system: SK-OV-3 ovarian
# SN12C renal = test system: SN12C renal
# SNB-19 CNS = test system: SNB-19 CNS
# SNB-75 CNS = test system: SNB-75 CNS
# SNB-78 CNS = test system: SNB-78 CNS
# SW-620 colon = test system: SW-620 colon
# TK-10 renal = test system: TK-10 renal
# U251 CNS = test system: U251 CNS
# UACC-257 melanoma = test system: UACC-257 melanoma
# UACC-62 melanoma = test system: UACC-62 melanoma
# UO-31 renal = test system: UO-31 renal
# XF 498 CNS = test system: XF 498 CNS
# CAKI-1 renal = test system: CAKI-1 renal
# DLD-1 colon = test system: DLD-1 colon
# HCC-2998 colon = test system: HCC-2998 colon
# HL-60(TB) leukemia = test system: HL-60(TB) leukemia
# HOP-62 NSCLC = test system: HOP-62 NSCLC
# SR leukemia = test system: SR leukemia
smiles,measurement,setting,value
CC1(C)OCC[C@@H]1[Si](C)(C)C,TGI,786-0 renal,> 100 µM
same,TGI,A498 renal,> 100 µM
same,TGI,A549 NSCLC,> 100 µM
same,TGI,ACHN renal,> 100 µM
same,TGI,CCRF-CEM leukemia,> 100 µM
same,TGI,COLO 205 colon,> 100 µM
same,TGI,DMS 114 small cell lung,> 100 µM
same,TGI,DMS 273 small cell lung,> 100 µM
same,TGI,EKVX NSCLC,> 100 µM
same,TGI,HCT-116 colon,> 100 µM
same,TGI,HCT-15 colon,> 100 µM
same,TGI,HOP-18 NSCLC,> 100 µM
same,TGI,HOP-92 NSCLC,> 100 µM
same,TGI,HT29 colon,> 100 µM
same,TGI,IGROV1 ovarian,> 100 µM
same,TGI,K-562 leukemia,> 100 µM
same,TGI,KM12 colon,> 100 µM
same,TGI,KM20L2 colon,> 100 µM
same,TGI,LOX IMVI melanoma,> 100 µM
same,TGI,LXFL 529 NSCLC,> 100 µM
same,TGI,M14 melanoma,> 100 µM
same,TGI,M19-MEL melanoma,> 100 µM
same,TGI,MALME-3M melanoma,> 100 µM
same,TGI,MOLT-4 leukemia,> 100 µM
same,TGI,NCI-H226 lung,> 100 µM
same,TGI,NCI-H23 lung,> 100 µM
same,TGI,NCI-H460 lung,> 100 µM
same,TGI,NCI-H522 lung,61 µM
same,TGI,OVCAR-3 ovarian,> 100 µM
same,TGI,OVCAR-4 ovarian,> 100 µM
same,TGI,OVCAR-5 ovarian,> 100 µM
same,TGI,OVCAR-8 ovarian,> 100 µM
same,TGI,RPMI-8226 leukemia,> 100 µM
same,TGI,RXF 393 renal,89.8 µM
same,TGI,RXF-631 renal,> 100 µM
same,TGI,SF-268 CNS,> 100 µM
same,TGI,SF-295 CNS,> 100 µM
same,TGI,SF-539 CNS,> 100 µM
same,TGI,SK-MEL-2 melanoma,> 100 µM
same,TGI,SK-MEL-28 melanoma,> 100 µM
same,TGI,SK-MEL-5 melanoma,> 100 µM
same,TGI,SK-OV-3 ovarian,> 100 µM
same,TGI,SN12C renal,> 100 µM
same,TGI,SNB-19 CNS,> 100 µM
same,TGI,SNB-75 CNS,> 100 µM
same,TGI,SNB-78 CNS,> 100 µM
same,TGI,SW-620 colon,> 100 µM
same,TGI,TK-10 renal,> 100 µM
same,TGI,U251 CNS,> 100 µM
same,TGI,UACC-257 melanoma,> 100 µM
same,TGI,UACC-62 melanoma,> 100 µM
same,TGI,UO-31 renal,> 100 µM
same,TGI,XF 498 CNS,> 100 µM
O=C(Nc1cc(Cl)c(Cl)cc1Cl)C(=O)C(C(=O)c1ccccc1)C1OC(=O)c2ccccc21 (stereo not given),TGI,786-0 renal,> 100 µM
same,TGI,A498 renal,> 100 µM
same,TGI,A549 NSCLC,> 100 µM
same,TGI,ACHN renal,> 100 µM
same,TGI,CAKI-1 renal,> 100 µM
same,TGI,CCRF-CEM leukemia,> 100 µM
same,TGI,COLO 205 colon,> 100 µM
same,TGI,DLD-1 colon,> 100 µM
same,TGI,DMS 114 small cell lung,> 100 µM
same,TGI,DMS 273 small cell lung,> 100 µM
same,TGI,EKVX NSCLC,> 100 µM
same,TGI,HCC-2998 colon,> 100 µM
same,TGI,HCT-116 colon,> 100 µM
same,TGI,HCT-15 colon,> 100 µM
same,TGI,HL-60(TB) leukemia,> 100 µM
same,TGI,HOP-18 NSCLC,> 100 µM
same,TGI,HOP-62 NSCLC,> 100 µM
same,TGI,HOP-92 NSCLC,> 100 µM
same,TGI,HT29 colon,> 100 µM
same,TGI,IGROV1 ovarian,> 100 µM
same,TGI,K-562 leukemia,> 100 µM
same,TGI,KM12 colon,> 100 µM
same,TGI,KM20L2 colon,> 100 µM
same,TGI,LOX IMVI melanoma,> 100 µM
same,TGI,LXFL 529 NSCLC,> 100 µM
same,TGI,M14 melanoma,> 100 µM
same,TGI,M19-MEL melanoma,> 100 µM
same,TGI,MALME-3M melanoma,> 100 µM
same,TGI,MOLT-4 leukemia,> 100 µM
same,TGI,NCI-H226 lung,> 100 µM
same,TGI,NCI-H23 lung,> 100 µM
same,TGI,NCI-H460 lung,> 100 µM
same,TGI,NCI-H522 lung,> 100 µM
same,TGI,OVCAR-3 ovarian,> 100 µM
same,TGI,OVCAR-4 ovarian,> 100 µM
same,TGI,OVCAR-5 ovarian,> 100 µM
same,TGI,OVCAR-8 ovarian,> 100 µM
same,TGI,RPMI-8226 leukemia,> 100 µM
same,TGI,RXF 393 renal,> 100 µM
same,TGI,RXF-631 renal,> 100 µM
same,TGI,SF-268 CNS,> 100 µM
same,TGI,SF-295 CNS,> 100 µM
same,TGI,SK-MEL-28 melanoma,> 100 µM
same,TGI,SK-OV-3 ovarian,> 100 µM
same,TGI,SN12C renal,> 100 µM
same,TGI,SNB-19 CNS,> 100 µM
same,TGI,SNB-75 CNS,> 100 µM
same,TGI,SNB-78 CNS,> 100 µM
same,TGI,SR leukemia,> 100 µM
same,TGI,SW-620 colon,> 100 µM
same,TGI,TK-10 renal,> 100 µM
same,TGI,U251 CNS,> 100 µM
same,TGI,UACC-257 melanoma,> 100 µM
same,TGI,UACC-62 melanoma,> 100 µM
same,TGI,UO-31 renal,> 100 µM
same,TGI,XF 498 CNS,> 100 µM
O=C(O)C(CO)N=Cc1nc(-c2ccccc2)oc1O (stereo not given),TGI,786-0 renal,> 100 µM
same,TGI,A498 renal,> 100 µM
same,TGI,A549 NSCLC,> 100 µM
same,TGI,ACHN renal,> 100 µM
same,TGI,CAKI-1 renal,> 100 µM
same,TGI,CCRF-CEM leukemia,> 100 µM
same,TGI,COLO 205 colon,> 100 µM
same,TGI,DLD-1 colon,> 100 µM
same,TGI,DMS 114 small cell lung,> 100 µM
same,TGI,DMS 273 small cell lung,> 100 µM
same,TGI,EKVX NSCLC,> 100 µM
same,TGI,HCC-2998 colon,> 100 µM
same,TGI,HCT-116 colon,> 100 µM
same,TGI,HCT-15 colon,> 100 µM
same,TGI,HL-60(TB) leukemia,> 100 µM
same,TGI,HOP-18 NSCLC,> 100 µM
same,TGI,HOP-62 NSCLC,> 100 µM
same,TGI,HOP-92 NSCLC,> 100 µM
same,TGI,HT29 colon,> 100 µM
same,TGI,IGROV1 ovarian,> 100 µM
same,TGI,K-562 leukemia,> 100 µM
same,TGI,KM12 colon,> 100 µM
same,TGI,KM20L2 colon,> 100 µM
same,TGI,LOX IMVI melanoma,> 100 µM
same,TGI,LXFL 529 NSCLC,> 100 µM
same,TGI,M14 melanoma,> 100 µM
same,TGI,M19-MEL melanoma,> 100 µM
same,TGI,MALME-3M melanoma,> 100 µM
same,TGI,NCI-H226 lung,> 100 µM
same,TGI,NCI-H23 lung,> 100 µM
same,TGI,NCI-H460 lung,> 100 µM
same,TGI,NCI-H522 lung,> 100 µM
same,TGI,OVCAR-3 ovarian,> 100 µM
same,TGI,OVCAR-4 ovarian,> 100 µM
same,TGI,OVCAR-5 ovarian,> 100 µM
same,TGI,OVCAR-8 ovarian,> 100 µM
same,TGI,RPMI-8226 leukemia,> 100 µM
same,TGI,RXF 393 renal,> 100 µM
same,TGI,RXF-631 renal,> 100 µM
same,TGI,SF-268 CNS,> 100 µM
same,TGI,SF-295 CNS,> 100 µM
same,TGI,SF-539 CNS,> 100 µM
same,TGI,SK-MEL-2 melanoma,> 100 µM
same,TGI,SK-MEL-28 melanoma,> 100 µM
same,TGI,SK-MEL-5 melanoma,> 100 µM
same,TGI,SK-OV-3 ovarian,> 100 µM
same,TGI,SNB-19 CNS,> 100 µM
same,TGI,SNB-75 CNS,> 100 µM
same,TGI,SNB-78 CNS,> 100 µM
same,TGI,SW-620 colon,> 100 µM
same,TGI,TK-10 renal,> 100 µM
same,TGI,U251 CNS,> 100 µM
same,TGI,UACC-257 melanoma,> 100 µM
same,TGI,UACC-62 melanoma,> 100 µM
same,TGI,UO-31 renal,> 100 µM
same,TGI,XF 498 CNS,> 100 µM
